The values below come from patent US11708354B2, “2-benzopyrazinyl-n-heteroaryl-2-phenyl-acetamide compounds” (Hoffmann-La Roche Inc., priority 2016, dated 2023).

Where a name gives a salt, the structure may show the parent alone.

The test system of the test is Phospho-EGFR in H1975 cell line. The test is described as follows: HTRF Phospo EGFR Assay (Cellular). The class given is cell-based. The following applies: Homo sapiens, NCI-H1975; H1975 cells, 6 hours compound incubation in starving medium, HTRF phospho-EGFR readout. The procedure:
HTRF Phospo EGFR Assay (Cellular)
H1975 cell line was obtained from American Type Culture Collection (Manassas, Va., USA). Cells were maintained at 37° C., 5% CO2 in complete Media RPMI 1640 without phenol red containing 0.3 mg/ml glutamine, 100 IU/ml penicillin, and […] (Gibco) supplemented with 10% fetal bovine serum (FBS) (Gibco). Compounds were diluted into starving medium RPMI 1640 Media without phenol red containing 0.3 mg/ml glutamine, 100 IU/ml penicillin, and […] (Gibco).
Cells were cultured overnight in a 384-well white plate (8000 cells/well) using 8 μl of complete medium/well. Cells were washed two times with 20 μl of starving medium. Media was removed by tapping plates on tissue and subsequently 8 μl of fresh starving medium/well was added. Then 4 μl/well of the 3× compound solution, containing a half-log dilution series of the compound or DMSO in starving medium, were added to the cells. After 6 hours at 37° C., 5% CO2 cells were lysed by adding to the compound mix 4 μl/well of the supplemented lysis buffer, followed by incubation for 30 min at room temperature with shaking. Lysates were stored at −20° C. over night. The following day plates were thawed and 2 μl of anti-Phospho-EGFR Cryptate and 2 μl of anti-Phospho-EGFR-d2 antibody solutions prepared in the detection buffer were added. The plates were then incubated for at least 4 h at room temperature before reading the fluorescence emission at 620 and 665 nm using PHERAstar FX plate reader (BMG Labtech).
(TR-FRET usually uses a lanthanide donor and a delayed reading to cut background.)
`O=C(Nc1ccccn1)C(c1ccccc1)n1cc2ccccc2n1` (racemic) [Example 1, (2RS)-2-Indazol-2-yl-2-phenyl-N-(2-pyridyl)acetamide] returned a half-maximal inhibitory concentration (IC50) of 1760 nM.
For `O=C(Nc1nccs1)C(c1ccccc1)n1cc2ccccc2n1` (racemic) [Example 2, (2RS)-2-Indazol-2-yl-2-phenyl-N-thiazol-2-yl-acetamide], half-maximal inhibition (IC50) was put at 77 nM.
Consider `Nc1ccc2cn(C(C(=O)Nc3nccs3)c3ccccc3)nc2c1` (racemic) [Example 3, (2RS)-2-(6-Aminoindazol-2-yl)-2-phenyl-N-thiazol-2-yl-acetamide], for which the IC50 was determined as 499 nM.
Consider `COc1ccc2cn(C(C(=O)Nc3nccs3)c3ccccc3)nc2c1` (racemic) [Example 4, (2RS)-2-(6-Methoxyindazol-2-yl)-2-phenyl-N-thiazol-2-yl-acetamide], for which the IC50 came out at 537 nM.
Then `O=C(Nc1nccs1)C(c1ccccc1)n1cc2ccc(O)cc2n1` (racemic) [Example 5, (2RS)-2-(6-Hydroxyindazol-2-yl)-2-phenyl-N-thiazol-2-yl-acetamide], with 199 nM; and `O=C(Nc1nccs1)C(c1cc(F)ccc1O)n1cc2ccccc2n1` (racemic) [Example 6, (2RS)-2-(5-Fluoro-2-hydroxy-phenyl)-2-indazol-2-yl-N-thiazol-2-yl-acetamide], with 57 nM; and `Nc1ccc(C#Cc2ccc3cn(C(C(=O)Nc4ccccn4)c4cc(F)ccc4O)nc3c2F)cn1` (racemic) [Example 7, (2RS)-2-[6-[2-(6-Amino-3-pyridyl)ethynyl]-7-fluoro-indazol-2-yl]-2-(5-fluoro-2-hydroxy-phenyl)-N-(2-pyridyl)acetamide], with 7 nM.
With `O=C(Nc1nccs1)C(c1ccccc1)n1cc2ccc(-c3ccc(N4CCNCC4)nc3)c(Cl)c2n1` (racemic) [Example 8, (2RS)-2-[7-Chloro-6-(6-piperazin-1-yl-3-pyridyl)indazol-2-yl]-2-phenyl-N-thiazol-2-yl-acetamide], half-maximal inhibition (IC50) required 32 nM.
Compound `O=C(Nc1ccccn1)C(c1ccccc1)n1cc2ccc(-c3ccc(N4CCNCC4)nc3)c(F)c2n1` (racemic) [Example 9, (2RS)-2-[7-Fluoro-6-(6-piperazin-1-yl-3-pyridyl)indazol-2-yl]-2-phenyl-N-(2-pyridyl)acetamide] registered a concentration for half-maximal inhibition (IC50) of 127 nM.
The compound `Nc1ccc(C#Cc2ccc3cn(C(C(=O)Nc4nccs4)c4ccccc4)nc3c2F)cn1` (racemic) [Example 11, (2RS)-2-[6-[2-(6-Amino-3-pyridyl)ethynyl]-7-fluoro-indazol-2-yl]-2-phenyl-N-thiazol-2-yl-acetamide] came in with a concentration for half-maximal inhibition (IC50) of 52 nM.
For `O=C(Nc1nccs1)C(c1ccccc1)n1cc2ccc(-c3ccc(N4CCNCC4)nc3)c(F)c2n1` (racemic) [Example 12, (2RS)-2-[7-Fluoro-6-(6-piperazin-1-yl-3-pyridyl)indazol-2-yl]-2-phenyl-N-thiazol-2-yl-acetamide hydrochloride] the value was 31 nM; for `CCN1CCN(c2ccc(-c3ccc4cn(C(C(=O)Nc5nccs5)c5cccc(F)c5)nc4c3)cn2)CC1` (racemic) [Example 13, (2RS)-2-[6-[6-(4-Ethylpiperazin-1-yl)-3-pyridyl]indazol-2-yl]-2-(3-fluorophenyl)-N-thiazol-2-yl-acetamide], 144 nM; for `O=C(Nc1nccs1)C(c1cccc(F)c1)n1cc2ccc(C#Cc3cccnc3)cc2n1` (racemic) [Example 14, (2RS)-2-(3-Fluorophenyl)-2-[6-[2-(3-pyridyl)ethynyl]indazol-2-yl]-N-thiazol-2-yl-acetamide], 22 nM.
`O=C(Nc1nccs1)C(c1cc(F)ccc1O)n1cc2cccc(Br)c2n1` (racemic) [Example 15, (2RS)-2-(7-Bromoindazol-2-yl)-2-(5-fluoro-2-hydroxy-phenyl)-N-thiazol-2-yl-acetamide]: 1 nM corresponded to half-maximal inhibition (IC50). This IC50 is about 22-fold lower than that of the compound before.
Take `O=C(Nc1nccs1)C(c1cc(F)ccc1O)n1cc2cccc(-c3ccccc3)c2n1` (racemic) [Example 16, (2RS)-2-(5-Fluoro-2-hydroxy-phenyl)-2-(7-phenylindazol-2-yl)-N-thiazol-2-yl-acetamide]: the IC50 amounted to 55 nM.
`O=C(Nc1nccs1)C(c1cc(F)ccc1O)n1cc2cccc(N3CCOCC3)c2n1` (racemic) [Example 17, (2RS)-2-(5-Fluoro-2-hydroxy-phenyl)-2-(7-morpholinoindazol-2-yl)-N-thiazol-2-yl-acetamide] registered an IC50 of 60 nM. The IC50 values of the last two compounds are within 1.5-fold of each other.
As to `O=C(Nc1nccs1)C(c1cc(F)ccc1O)n1cc2ccc(Br)cc2n1` (racemic) [Example 18, (2RS)-2-(6-Bromoindazol-2-yl)-2-(5-fluoro-2-hydroxy-phenyl)-N-thiazol-2-yl-acetamide], it took 43 nM to reach half-maximal inhibition (IC50).
Then `O=C(Nc1nccs1)C(c1cc(F)ccc1O)n1cc2ccc(-c3ccccc3)cc2n1` (racemic) [Example 19, (2RS)-2-(5-Fluoro-2-hydroxy-phenyl)-2-(6-phenylindazol-2-yl)-N-thiazol-2-yl-acetamide], with 33 nM; and `O=C(Nc1nccs1)C(c1ccccc1)n1cc2ccc(-c3ccc(N4CCNCC4)nc3)cc2n1` (racemic) [Example 20, (2RS)-2-Phenyl-2-[6-(6-piperazin-1-yl-3-pyridyl)indazol-2-yl]-N-thiazol-2-yl-acetamide hydrochloride], with 39 nM.

One may read the IC50 as the midpoint of a concentration-inhibition curve. Low readings indicate higher potency, high ones lower potency.
